From patent publication US6759051B2, “Cosmetic or dermatological composition comprising at least one alkynyl carbamate and at least one polyol” (L'Oreal, priority 1998, dated 2004) come the findings set out here.

This assay relates to Pityrosporum ovale from the Institut Pasteur, reference CIP 1363.82. As to the kind of experiment: Antifungal activity by the MIC (Minimum Inhibitory Concentration) method. Type of assay: cell-based. To be noted: each compound at the concentration MIC/2; Sabouraud+Tween 40+glyceryl monooleate agar medium, 48 hours at 30° C. The procedure: The activity of the combination of compound (A) and compound (B) was determined by a conventional method known as the MIC (Minimum Inhibitory Concentration), the MIC corresponding to the concentration at which a given […] inhibits the growth of a given strain under defined conditions.
In this instance, strains of Pityrosporum ovale from the Institut Pasteur, reference CIP 1363.82, were used.
An inoculum of a fresh culture, of 1 to 10×10^7 cells/ml, is introduced into a Sabouraud+Tween 40 at 10 g/l+glyceryl monooleate at 2.5 g/l agar medium, in the presence or absence of the compound or of the combination of the compounds to be studied, and incubated for 48 hours at 30° C.

With `CCCCNC(=O)OCC#CI` [Compound A, 3-iodo-2-propynyl butyl carbamate], the “growth of the microorganism” value is “identical to that of the control medium”. For the compound `CCCCC(CC)COCC(O)CO` (centres unmarked) [Compound B, 3-(2-ethylhexyloxy)-1,2-propanediol], the “growth of the microorganism” value is recorded as “identical to that of the control medium”.
